# ChEMBL document CHEMBL1201862, “PubChem BioAssay data set” (2004)
# The source made the active and inactive calls.
# Columns and labels:
# [1] = Luminescence Cell-Based Dose Retest to Confirm Inhibitors of Cancer Stem Cells. [Related pubchem assays (depositor defined):AID2717, AID2721]; format: functional, Homo sapiens
# SUMO-activating enzyme [2] = target: T1, SUMO-activating enzyme (Homo sapiens, UniProt Q9UBT2); assay: inhibitors of in vitro SUMOylation cascade, primary screen, biochemical, HTRF, uHTS (AID 2006); format: protein-complex assay
# T1 sequence (Q9UBE0 whole entry): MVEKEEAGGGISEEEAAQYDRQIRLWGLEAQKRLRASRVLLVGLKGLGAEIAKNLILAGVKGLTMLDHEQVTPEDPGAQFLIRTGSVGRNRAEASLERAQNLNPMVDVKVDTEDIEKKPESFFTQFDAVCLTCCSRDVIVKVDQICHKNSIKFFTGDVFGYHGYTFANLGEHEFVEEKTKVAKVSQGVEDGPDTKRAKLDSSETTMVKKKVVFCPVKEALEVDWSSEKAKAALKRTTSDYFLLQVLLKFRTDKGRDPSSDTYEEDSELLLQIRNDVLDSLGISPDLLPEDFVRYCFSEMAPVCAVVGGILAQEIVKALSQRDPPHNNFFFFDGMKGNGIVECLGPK
# T1 sequence (Q9UBT2 whole entry): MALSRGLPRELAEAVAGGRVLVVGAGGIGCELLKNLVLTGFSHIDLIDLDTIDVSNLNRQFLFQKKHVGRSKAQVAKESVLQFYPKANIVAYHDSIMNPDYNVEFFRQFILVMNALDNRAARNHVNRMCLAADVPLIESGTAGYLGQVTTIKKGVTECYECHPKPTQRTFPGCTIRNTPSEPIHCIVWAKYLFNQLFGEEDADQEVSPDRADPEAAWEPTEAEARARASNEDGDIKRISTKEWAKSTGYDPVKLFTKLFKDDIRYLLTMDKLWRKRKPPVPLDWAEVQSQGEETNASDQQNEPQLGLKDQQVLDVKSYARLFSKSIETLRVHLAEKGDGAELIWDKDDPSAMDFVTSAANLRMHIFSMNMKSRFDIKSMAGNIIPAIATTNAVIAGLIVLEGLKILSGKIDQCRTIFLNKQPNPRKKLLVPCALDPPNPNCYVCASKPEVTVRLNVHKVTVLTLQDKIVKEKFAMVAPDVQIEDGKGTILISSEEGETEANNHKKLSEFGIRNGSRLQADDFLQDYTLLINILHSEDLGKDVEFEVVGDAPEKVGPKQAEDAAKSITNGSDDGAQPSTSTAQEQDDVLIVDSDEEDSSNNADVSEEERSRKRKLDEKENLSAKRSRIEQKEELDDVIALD
# SUMO-activating enzyme [3] = target: T1, SUMO-activating enzyme; assay: SUMOylation inhibitor hit validation, confirmation, SUMOylation inhibitor project, biochemical, AlphaScreen (AID 2018); format: functional
# Coagulation factor XII = target: T2, Coagulation factor XII (Homo sapiens, UniProt P00748); format: functional;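 further: activated factor XIIa alpha cleaving a fluorogenic AMC peptide substrate; inhibitor potency from loss of enzyme activity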
# T2 sequence (P00748 whole entry): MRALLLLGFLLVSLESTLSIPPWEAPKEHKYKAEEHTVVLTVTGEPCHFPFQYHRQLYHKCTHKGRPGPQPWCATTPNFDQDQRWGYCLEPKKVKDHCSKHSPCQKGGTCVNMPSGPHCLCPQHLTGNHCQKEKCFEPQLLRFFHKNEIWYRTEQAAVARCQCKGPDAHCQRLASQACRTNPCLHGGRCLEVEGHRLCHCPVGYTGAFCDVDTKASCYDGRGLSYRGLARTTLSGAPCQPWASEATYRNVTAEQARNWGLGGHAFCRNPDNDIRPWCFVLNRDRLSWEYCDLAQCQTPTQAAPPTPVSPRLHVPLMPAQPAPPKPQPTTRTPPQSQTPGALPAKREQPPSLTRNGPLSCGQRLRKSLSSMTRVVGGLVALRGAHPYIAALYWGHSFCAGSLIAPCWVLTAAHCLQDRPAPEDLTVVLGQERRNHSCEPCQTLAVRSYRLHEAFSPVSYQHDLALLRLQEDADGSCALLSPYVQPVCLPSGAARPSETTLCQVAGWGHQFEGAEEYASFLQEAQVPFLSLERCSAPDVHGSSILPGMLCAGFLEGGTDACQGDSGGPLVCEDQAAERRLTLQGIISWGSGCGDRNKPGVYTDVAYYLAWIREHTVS
# [4] = target: T3, Calpain-2 catalytic subunit (Sus scrofa, UniProt P43367); assay: pig calpain II inhibitor potency, dose response, biochemical, fluorogenic peptide substrate (AID 1420); format: functional
# T3 sequence (P43367 whole entry): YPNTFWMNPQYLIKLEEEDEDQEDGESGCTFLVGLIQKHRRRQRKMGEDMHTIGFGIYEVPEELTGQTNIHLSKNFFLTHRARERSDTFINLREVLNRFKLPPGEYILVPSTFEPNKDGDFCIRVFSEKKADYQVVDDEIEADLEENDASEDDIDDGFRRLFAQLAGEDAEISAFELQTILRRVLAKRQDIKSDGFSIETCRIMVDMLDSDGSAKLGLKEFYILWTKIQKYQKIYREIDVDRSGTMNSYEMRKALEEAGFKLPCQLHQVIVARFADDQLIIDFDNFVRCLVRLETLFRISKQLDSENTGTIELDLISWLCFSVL
# Prothrombin [5] = target: Prothrombin (Homo sapiens, UniProt P00734); assay: Thrombin 1536 HTS Dose Response Confirmation. [Related pubchem assays: 1046 (Thrombin 1536 HTS; hits were confirmed in this assay)]; format: functional
# [6] = Luminescence Cell-Based Dose Response HTS to Identify Activators of Luciferase Translation or Activity in H4 […] Cells. [Related pubchem assays: 1829 (Project Summary), 1814 (Primary HTS)]; format: functional
# H4 = assay: Luminescence Cell-Based Dose Response HTS to Identify Activators of 5'UTR Stem-Loop Driven Prion Protein mRNA Translation in H4 Neuroglioblastoma Cells. [Related pubchem assays: 1829 (Project Summary), 1814 (Primary HTS)]; format: functional; conditions: Homo sapiens
# [7] = target: T4, Tyrosine-protein phosphatase non-receptor type 11 (Homo sapiens, UniProt Q06124); assay: SHP2 phosphatase inhibition, dose response, selectivity assay for STEP inhibitor project, biochemical (AID 602367); format: functional; conditions: read-out: IC50_Mean
# T4 sequence (Q06124 whole entry): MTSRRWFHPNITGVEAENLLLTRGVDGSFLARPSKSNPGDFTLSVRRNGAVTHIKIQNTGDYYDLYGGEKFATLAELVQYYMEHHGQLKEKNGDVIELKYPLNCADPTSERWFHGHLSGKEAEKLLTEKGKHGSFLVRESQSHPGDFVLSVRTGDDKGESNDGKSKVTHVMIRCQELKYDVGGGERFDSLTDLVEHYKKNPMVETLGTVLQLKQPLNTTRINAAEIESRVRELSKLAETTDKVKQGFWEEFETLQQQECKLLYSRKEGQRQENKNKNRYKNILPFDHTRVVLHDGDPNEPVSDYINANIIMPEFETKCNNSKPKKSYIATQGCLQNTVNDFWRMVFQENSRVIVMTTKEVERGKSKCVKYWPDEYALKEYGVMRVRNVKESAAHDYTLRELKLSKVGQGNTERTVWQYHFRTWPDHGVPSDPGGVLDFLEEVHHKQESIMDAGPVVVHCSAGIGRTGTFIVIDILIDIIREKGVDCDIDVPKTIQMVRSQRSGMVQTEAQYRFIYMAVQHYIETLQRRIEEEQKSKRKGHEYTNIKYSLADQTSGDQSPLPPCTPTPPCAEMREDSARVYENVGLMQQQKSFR
# Prothrombin [8] = target: Prothrombin (Bos taurus, UniProt P00735); assay: thrombin inhibition, dose response, biochemical, fluorescence polarization, uHTS hits (AID 602369); format: functional
# [9] = target: 72 kDa type IV collagenase (Homo sapiens, UniProt P08253); assay: Dose Response validation of uHTS RPN11 inhibitor hits using a MMP-2 Fluorescence assay.; format: functional
# Sequence of 72 kDa type IV collagenase (P08253 whole entry): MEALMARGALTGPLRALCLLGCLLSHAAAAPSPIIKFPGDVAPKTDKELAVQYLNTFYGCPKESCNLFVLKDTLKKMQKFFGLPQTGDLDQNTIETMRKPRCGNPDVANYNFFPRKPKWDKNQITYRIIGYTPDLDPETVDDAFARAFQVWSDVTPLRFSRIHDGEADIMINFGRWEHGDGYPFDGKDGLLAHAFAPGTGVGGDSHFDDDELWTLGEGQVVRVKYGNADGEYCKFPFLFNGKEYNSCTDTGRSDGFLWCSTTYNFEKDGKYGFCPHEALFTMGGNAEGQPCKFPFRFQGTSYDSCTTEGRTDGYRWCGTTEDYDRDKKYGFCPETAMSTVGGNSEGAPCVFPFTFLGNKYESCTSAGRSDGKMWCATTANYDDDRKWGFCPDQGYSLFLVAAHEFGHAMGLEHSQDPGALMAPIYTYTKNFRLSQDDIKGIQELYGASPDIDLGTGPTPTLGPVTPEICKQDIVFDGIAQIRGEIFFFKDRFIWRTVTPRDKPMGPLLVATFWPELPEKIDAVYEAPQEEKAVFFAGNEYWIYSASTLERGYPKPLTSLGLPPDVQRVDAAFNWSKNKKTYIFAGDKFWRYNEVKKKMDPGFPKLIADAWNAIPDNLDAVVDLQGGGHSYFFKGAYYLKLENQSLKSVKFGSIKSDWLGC
# [10] = target: T5, Tyrosine-protein phosphatase non-receptor type 5 (Homo sapiens, UniProt P54829); assay: STEP phosphatase inhibitors, confirmation, biochemical, fluorescence intensity, uHTS hits (AID 602372); format: functional; conditions: read-out: IC50_Mean
# T5 sequence (P54829 whole entry): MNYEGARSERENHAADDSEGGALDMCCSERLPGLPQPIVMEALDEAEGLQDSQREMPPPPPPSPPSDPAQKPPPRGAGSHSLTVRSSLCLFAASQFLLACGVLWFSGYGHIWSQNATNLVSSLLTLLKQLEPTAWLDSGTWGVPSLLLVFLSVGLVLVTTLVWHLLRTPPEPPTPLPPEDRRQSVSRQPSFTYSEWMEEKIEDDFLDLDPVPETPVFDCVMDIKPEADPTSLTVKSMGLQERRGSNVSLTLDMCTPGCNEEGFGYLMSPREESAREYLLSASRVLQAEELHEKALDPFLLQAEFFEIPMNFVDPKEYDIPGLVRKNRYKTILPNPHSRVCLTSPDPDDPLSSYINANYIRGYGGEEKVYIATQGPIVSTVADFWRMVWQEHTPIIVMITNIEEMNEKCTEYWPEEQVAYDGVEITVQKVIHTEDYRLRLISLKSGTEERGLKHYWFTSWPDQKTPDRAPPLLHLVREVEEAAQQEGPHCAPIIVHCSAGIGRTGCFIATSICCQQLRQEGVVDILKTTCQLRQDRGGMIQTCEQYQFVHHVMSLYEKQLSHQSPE
# [11] = target: T6, Small ubiquitin-related modifier 1 (Homo sapiens, UniProt P63165); assay: inhibitors of SUMO1 peptide binding, dose response, biochemical, fluorescence polarization, uHTS hits (AID 624382); format: functional; conditions: read-out: IC50_Mean
# T6 sequence (P63165 whole entry): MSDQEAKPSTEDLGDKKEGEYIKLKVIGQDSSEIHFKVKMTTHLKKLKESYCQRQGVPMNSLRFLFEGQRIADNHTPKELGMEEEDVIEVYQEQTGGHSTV
# [12] = target: T6, Small ubiquitin-related modifier 1; assay: inhibitors of SUMO1 partner interactions, dose response, biochemical, FRET (AID 624383); format: functional; conditions: read-out: IC50_Mean
# [13] = target: Dual specificity protein phosphatase 3 (Homo sapiens, UniProt P51452); assay: VHR phosphatase inhibition, dose response, selectivity assay for STEP inhibitor project, biochemical (AID 602374); format: functional; conditions: read-out: IC50_Mean
# Sequence of Dual specificity protein phosphatase 3 (P51452 whole entry): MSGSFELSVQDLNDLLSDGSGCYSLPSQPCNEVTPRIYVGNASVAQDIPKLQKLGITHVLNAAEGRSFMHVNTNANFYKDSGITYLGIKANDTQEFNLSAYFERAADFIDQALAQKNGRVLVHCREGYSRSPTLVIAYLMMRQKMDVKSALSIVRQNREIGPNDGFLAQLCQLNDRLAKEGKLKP
# [14] = target: 26S proteasome non-ATPase regulatory subunit 14 (Homo sapiens, UniProt O00487); assay: inhibition of proteasome subunit RPN11 – biochemical, fluorescence polarization, uHTS hits, confirmation (AID 602368); format: functional
# Sequence of 26S proteasome non-ATPase regulatory subunit 14 (O00487 whole entry): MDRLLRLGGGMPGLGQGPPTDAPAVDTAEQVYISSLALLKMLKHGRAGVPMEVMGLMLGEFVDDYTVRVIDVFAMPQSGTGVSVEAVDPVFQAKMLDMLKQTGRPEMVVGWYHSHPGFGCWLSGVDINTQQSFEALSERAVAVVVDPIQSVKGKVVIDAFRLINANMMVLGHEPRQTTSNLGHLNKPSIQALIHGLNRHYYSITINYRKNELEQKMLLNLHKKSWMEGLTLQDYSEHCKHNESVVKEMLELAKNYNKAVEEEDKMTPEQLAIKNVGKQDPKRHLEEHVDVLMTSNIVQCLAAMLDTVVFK
# HEK293 [15] = assay: NOD2 signaling inhibitors in MDP-stimulated cells, cell-based, uHTS, luminescence (AID 2001); format: functional; conditions: Homo sapiens
# HEK293 [16] = assay: cells; format: functional, cell-based; conditions: Homo sapiens
# HEK293 [17] = assay: cells; format: functional, cell-based; conditions: Homo sapiens; remark: listed apart in the source
# HEK293 [18] = assay: cells; conditions: Homo sapiens
# HEK293 [19] = assay: NOD1 signaling inhibitors, primary screen, cell-based, luminescence, uHTS (AID 1578); format: functional; conditions: Homo sapiens
# HEK293 [20] = assay: cells; format: functional, cell-based; conditions: Homo sapiens; remark: listed apart in the source
# [21] = target: T7, Mannose-6-phosphate isomerase (Homo sapiens, UniProt P34949); assay: PMI enzyme inhibitors, confirmation, biochemical, fluorescence intensity (AID 1535)
# T7 sequence (P34949 whole entry): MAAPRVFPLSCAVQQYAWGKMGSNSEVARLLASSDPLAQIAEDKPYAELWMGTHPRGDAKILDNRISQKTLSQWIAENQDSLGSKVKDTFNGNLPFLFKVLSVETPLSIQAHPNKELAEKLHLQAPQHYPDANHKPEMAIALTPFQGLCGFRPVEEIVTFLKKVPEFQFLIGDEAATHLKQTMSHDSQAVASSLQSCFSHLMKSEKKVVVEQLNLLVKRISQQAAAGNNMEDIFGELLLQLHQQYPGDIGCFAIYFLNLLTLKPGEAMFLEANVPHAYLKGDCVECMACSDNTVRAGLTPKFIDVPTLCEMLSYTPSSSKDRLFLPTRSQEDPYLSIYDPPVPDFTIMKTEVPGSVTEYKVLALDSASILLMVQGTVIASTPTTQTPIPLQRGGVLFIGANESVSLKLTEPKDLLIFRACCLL
# [22] = target: Intestinal-type alkaline phosphatase (Mus musculus, UniProt P24822); assay: PubChem AID 488785; format: functional
# Sequence of Intestinal-type alkaline phosphatase (Mus musculus, UniProt P24822) (P24822 whole entry): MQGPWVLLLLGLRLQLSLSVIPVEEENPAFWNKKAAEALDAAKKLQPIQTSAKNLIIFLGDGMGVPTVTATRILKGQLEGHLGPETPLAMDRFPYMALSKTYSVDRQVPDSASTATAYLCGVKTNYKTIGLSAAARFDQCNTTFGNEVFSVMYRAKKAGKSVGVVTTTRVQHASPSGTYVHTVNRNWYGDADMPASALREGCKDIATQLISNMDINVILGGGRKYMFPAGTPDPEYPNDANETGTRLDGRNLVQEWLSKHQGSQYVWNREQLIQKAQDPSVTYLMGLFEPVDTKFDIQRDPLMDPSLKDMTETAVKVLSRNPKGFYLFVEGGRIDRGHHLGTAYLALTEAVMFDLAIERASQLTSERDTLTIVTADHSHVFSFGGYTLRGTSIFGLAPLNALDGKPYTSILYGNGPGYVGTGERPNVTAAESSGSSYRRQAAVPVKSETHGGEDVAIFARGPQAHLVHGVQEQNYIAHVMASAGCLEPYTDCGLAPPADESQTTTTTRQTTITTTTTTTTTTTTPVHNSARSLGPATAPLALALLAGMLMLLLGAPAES
# [23] = target: Intestinal-type alkaline phosphatase (Homo sapiens, UniProt P09923); assay: inhibition of human intestinal alkaline phosphatase – biochemical, dose response (AID 488876); format: functional
# Sequence of Intestinal-type alkaline phosphatase (Homo sapiens, UniProt P09923) (P09923 whole entry): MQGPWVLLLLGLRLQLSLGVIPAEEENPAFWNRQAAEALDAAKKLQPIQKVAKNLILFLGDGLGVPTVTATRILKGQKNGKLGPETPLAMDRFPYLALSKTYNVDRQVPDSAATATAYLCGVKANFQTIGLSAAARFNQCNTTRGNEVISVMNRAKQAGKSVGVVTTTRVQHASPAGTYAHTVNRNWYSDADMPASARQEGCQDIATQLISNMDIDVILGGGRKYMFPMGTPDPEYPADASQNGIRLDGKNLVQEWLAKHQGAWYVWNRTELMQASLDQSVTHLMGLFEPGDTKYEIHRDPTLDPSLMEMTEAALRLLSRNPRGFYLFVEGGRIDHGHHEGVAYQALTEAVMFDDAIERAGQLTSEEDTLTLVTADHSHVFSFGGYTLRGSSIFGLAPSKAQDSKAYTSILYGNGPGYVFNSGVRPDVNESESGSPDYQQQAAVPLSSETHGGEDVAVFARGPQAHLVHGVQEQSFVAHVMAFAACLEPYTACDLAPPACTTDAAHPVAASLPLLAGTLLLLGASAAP
# Phosphomannomutase 2 = target: T8, Phosphomannomutase 2 (Homo sapiens, UniProt O15305); assay: Counter screen SAR assay for PMM2 inhibitors via a fluorescence intensity assay. [Related pubchem assays (depositor defined):AID1545, AID1574]
# T8 sequence (O15305 whole entry): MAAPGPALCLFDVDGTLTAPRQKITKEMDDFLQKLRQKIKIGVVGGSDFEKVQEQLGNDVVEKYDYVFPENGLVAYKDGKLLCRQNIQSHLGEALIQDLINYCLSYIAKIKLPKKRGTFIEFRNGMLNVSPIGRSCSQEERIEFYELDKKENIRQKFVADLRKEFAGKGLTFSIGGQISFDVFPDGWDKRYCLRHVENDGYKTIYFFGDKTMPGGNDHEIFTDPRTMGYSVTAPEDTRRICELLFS
# [24] = target: T7, Mannose-6-phosphate isomerase; assay: inhibitors of human PMI, primary screen, biochemical, fluorescence intensity, coupled assay (AID 1209)
# [25] = target: T9, Alkaline phosphatase, tissue-nonspecific isozyme (Homo sapiens, UniProt P05186); assay: TNAP enzyme inhibition by screening hits, dose response, selectivity assay for mouse IAP inhibitor project, biochemical, human TNAP, uHTS hits (AID 488906); format: functional
# T9 sequence (P05186 whole entry): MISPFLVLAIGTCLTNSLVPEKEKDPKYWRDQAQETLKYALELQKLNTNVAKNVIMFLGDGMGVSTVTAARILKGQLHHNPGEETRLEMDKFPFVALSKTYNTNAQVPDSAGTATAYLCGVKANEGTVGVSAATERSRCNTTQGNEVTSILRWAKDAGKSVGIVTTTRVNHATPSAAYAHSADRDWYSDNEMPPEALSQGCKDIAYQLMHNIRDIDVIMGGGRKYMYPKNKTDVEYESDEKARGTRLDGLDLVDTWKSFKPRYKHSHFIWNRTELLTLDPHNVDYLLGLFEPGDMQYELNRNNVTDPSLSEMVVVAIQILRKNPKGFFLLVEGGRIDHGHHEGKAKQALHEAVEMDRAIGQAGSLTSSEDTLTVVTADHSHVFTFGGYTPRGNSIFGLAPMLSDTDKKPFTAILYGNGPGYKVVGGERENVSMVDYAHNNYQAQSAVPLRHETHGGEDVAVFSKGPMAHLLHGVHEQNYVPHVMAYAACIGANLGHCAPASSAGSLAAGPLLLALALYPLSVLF
# 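Wherever AC50 is given: cells exposed to compound for roughly 70 hours or longer before luminescence read.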
smiles,measurement,setting,value
C=C(C)[C@@H]1CC[C@]2(C(=O)O)CC[C@]3(C)[C@H](CC[C@@H]4[C@@]5(C)CC[C@H](O)C(C)(C)[C@@H]5CC[C@]43C)[C@@H]12 [BETULINIC ACID],AC50,[1],1.94 µM (active)
same,AC50,[1]; Homo sapiens,3.05 µM (active)
same,IC50,SUMO-activating enzyme [2],9.24 µM (active)
same,IC50,SUMO-activating enzyme [3],13.2 µM (active)
O=C1N=C(Nc2ccccc2)S/C1=C/c1cccs1,IC50,Coagulation factor XII,> 50 µM (inactive)
same,IC50,[4],> 50 µM (not active)
O=C(NNC1=NCCCCC1)Nc1cccc(Cl)c1,IC50,Coagulation factor XII,> 50 µM (inactive)
same,IC50,Prothrombin [5],7.74 µM (active)
same,EC50,[6],0.409 µM (active)
same,EC50,H4,0.242 µM (active)
O=Cc1cn(-c2ccccc2)nc1-c1cc2cc(O)ccc2oc1=O,IC50,[7],1.96 µM (active)
same,IC50,Prothrombin [8],35.5 µM (active)
same,IC50,[9],> 100 µM (inactive)
same,IC50,[10],27.5 µM (inactive)
same,IC50,[11],> 66.6 µM (inactive)
same,IC50,[12],7.28 µM (active)
same,IC50,[13],3.02 µM (active)
same,IC50,[14],19.4 µM (active)
same,IC50,SUMO-activating enzyme [2],18.1 µM (active)
same,IC50,SUMO-activating enzyme [3],11.4 µM (active)
Cc1oc(-c2ccccc2Cl)nc1CSc1nc(O)c2c(n1)CCCC2,IC50,HEK293 [15],7.49 µM (active)
same,IC50,HEK293 [16],> 20 µM (inactive)
same,IC50,HEK293 [17],> 20 µM (inactive)
same,IC50,HEK293 [18],> 20 µM (inactive)
same,EC50,HEK293 [19],8.45 µM (active)
same,IC50,HEK293 [20],19.5 µM (active)
O=C(CSc1nc[nH]n1)CSc1nc[nH]n1,IC50,[21],> 50 µM (inactive)
same,IC50,[22],0.373 µM (active)
same,IC50,[23],7.33 µM (active)
same,IC50,Phosphomannomutase 2,> 100 µM (inactive)
same,IC50,[24],12.7 µM (active)
same,IC50,[25],8.85 µM (active)
